According to patent US8227240B2, “Systems for screening pharmaceutical chemicals” (The Washington University, priority 2001, dated 2012):

How the values were obtained:
[1] = system: actin cytoskeletons in mono-layer cell cultures; assay: Confocal microscopy of actin cytoskeletons stained with Rhodamine phalloidin; type: cell-based; conditions: CD 2 nM
[2] = system: chicken embryo fibroblasts (CEF's) tissue model; assay: Ring system: isometric force and dynamic stiffness of fibroblast populated matrices (FPM); type: cell-based; conditions: for contractile force produced in response to serum activation: cytochalasin D 2 μM
Method: Chicken embryo fibroblasts (CEF's) isolated from 11-day chicken embryos (Spafas Inc., Preston, Conn.) were maintained in Dulbecco's modified Eagle's medium (DMEM) supplemented with 10% fetal calf serum (FCS), penicillin at 50 units/ml, and streptomycin at 50 microgram/milliliter. The CEF's used to make tissue models were passaged once or twice from primary cultures. Monomeric collagen solubilized in 0.02 M acetic acid (Upstate Biotechnology Inc., Lake Placid, N.Y.) was neutralized at 4° C. with 0.1 N NaOH and mixed with concentrated DMEM stock to yield a final normal DMEM concentration. The fibroblasts suspended by trypsin (FIG. 1a) were mixed with the collagen solution (FIG. 1b), the cell suspension was poured into Teflon casting wells (FIG. 1c), and the wells were incubated at 37° C. with 5% CO2 (FIG. 1d). The collagen polymerized within 15-30 min and fibroblasts were captured within the hydrated collagen gel. The collagen gel formed a ring (3 mm thick, 3 cm diameter) between the inner wall of the cylindrical well and the central mandrel. While in culture the cells compressed this ring, reducing its volume about 10-fold (thickness 200-300 μm). The ring could then be removed from the mandrel (FIG. 1e and FIG. 1f) and mounted on the measuring instrument (FIG. 1g) as described below.
Mechanical measurements were carried out using a ring system. After two days of incubation (serum starvation for the final 12-16 hours), the mandrel was removed from the casting well and the tissue model-ring was removed gently from the mandrel. As shown in FIG. 1 the tissue model-ring was looped over the triangular hook connected to an isometric force transducer (Model 52-9545, Harvard Apparatus, South Natick, Mass.) by a fine, flexible gold chain. The ring was also looped over a horizontal bar connected to a sliding element moveable vertically and linearly by a stepper motor (P/N 1-19-3400 24V DC 1.8° step size, Haward Industry, St. Louis, Mo.) controlled by a micro-stepping driver (IM483 Intelligent Motion Systems) to measure stress and dynamic modulus of the sample. The micro-stepping driver was controlled by a personal computer with software which enabled the stepper motor to achieve smooth motion. An analog-to-digital signal converter (CIO-DAS1602/16, Computer Boards, Inc., Mansfield, Mass.) attached to the computer translated the voltage signal from the isometric force transducer to a digital signal for recording on a data recorder. The stepper motor controlled the stretching of the tissue. Force exerted by or on the tissue was transmitted to the force transducer by the gold chain.
The tissue sample was submerged in 50 ml Hepes-buffered DMEM (pH 7.4) in a thermo-regulated organ bath (Harvard Apparatus, South Natick, Mass.) maintained at 37° C. The two horizontal bars over which the ring was looped were initially set to hold the ring at its original contour length (corresponding to the circumference of the mandrel).
Typically, for stiffness measurements, the tissue model is subjected to a sequence of stretch cycles. In each cycle the tissue model is slowly stretched from 0 to 20% over 30 minutes and the tissue model is then returned at the same rate to its original length by actuation of the stepper motor. The resulting increase in contractile force during the first stretch is substantially larger than the contractile force in subsequent stretches (FIG. 2a). For each stretch after the first stretch there is a further small decrease in maximum contractile force, but the decrease becomes negligible after sufficient pre-stretching. The tissue models produced contractile force in response to the activation of fibroblasts by serum. This contractile force was abolished by disrupting the actin cytoskeleton with cytochalasin D (2 μM) (FIG. 2b).
The amplitude of the force response divided by the stretching amplitude corresponded to the dynamic stiffness of the sample subjected to a preselected sinusoidal length change. […]

For `C=C1[C@@H](C)[C@H]2[C@H](Cc3ccccc3)NC(=O)[C@]23[C@H](OC(C)=O)/C=C/[C@@](C)(O)C(=O)[C@@H](C)C/C=C/[C@H]3[C@@H]1O` [CD, cytochalasin D], the “effect on actin cytoskeletons by confocal microscopy” value [1] was “no effect was observed”, the “concentration range over which tension and stiffness decrease” value [2] was “almost three decades” and the “lowest concentration at which force and dynamic stiffness were significantly diminished” value [2] was 2 nM. The dynamic stiffness ([2]; CD 2 μM) was “nearly reached its minimum value”, the isometric force ([2]; CD 2 μM) was “reduced almost to zero” and the “contractile force produced in response to serum activation” value ([2]; listed as Cytochalasin D) was “abolition of active contractility”. For the same compound, the “contractile force produced in response to serum activation” value ([2]; listed as cytochalasin D) was “abolished”, the “effect on viscosity of the tissues (phase angle δ)” value ([2]; data not shown) was “relatively minor effect” and the IC50 ([2]; two day-old tissue models, serum starved 16 hours, serial additions, read-out: concentration needed to reduce the force and dynamic stiffness by 50%) was roughly 250 nM.
